# Source: patent US20050019931A1, “Nucleic acids encoding antifungal drug targets and methods of use” (Elitra Pharmaceuticals, Inc., priority 2002, published 2005)
# Columns and labels:
# [1] = system: bar-coded strains bearing heterozygous mutations in HIS3, TUB 1, ALG7, and ERG 11; settings: mixed population; HIS3, TUB 1, ALG7, ERG 11 respectively; cited from earlier work
# [2] = system: CaHIS3 (imidazoleglycerol phosphate dehydratase) wild type, heterozygote and GRACE strains; test: Target level variation whole cell assay: sensitivity of CaHIS3 strains towards 3-aminotriazole; assay type: cell-based, Candida albicans; settings: for sensitivity of CaHIS3 GRACE strain minimally expressing CaHIS3 (partial repression, threshold tetracycline): FIG. 6C/6D
# Excerpt: The data derived from these experiments clearly indicate that distinct levels of target gene products synthesized within the pathogen could be directly applied in whole cell assay based drug screens to identify novel antifungal compounds active against novel drug targets validated using the GRACE method.
# 3-AT is a competitive inhibitor of the enzyme encoded by CaHIS3, imidazoleglycerol phosphate dehydratase, and together serve as a model for a drug and drug target respectively. […] The phenotype observed is consistent with that expected in light of the predicted 7.5 fold overexpression of CaHIS3 determined by Northern bolt analysis (see FIG. 5). […] A third CaHIS3 expression level evaluated for differential sensitivity to 3-AT was produced by partial repression of the GRACE CaHIS3 strain using a threshold concentration of tetracycline 0.1% […].
# (§1) Moreover, these experiments clearly indicate how distinct levels of target gene products synthesized within the pathogen could be directly applied in whole cell assay based drug screens to identify novel antifungal compounds against those novel drug targets validated using the GRACE method.
# C. albicans = test: Sensitivity of C. albicans to selection antibiotics (dominant selectable markers); assay type: cell-based, Candida albicans
# Excerpt: Several art-known methods are available to create a heterozygote mutant. In less preferred embodiments, auxotrophic markers, such as but not limited to CaURA3, CaHIS3, CaLEU2, or CaTRP1, could be used for gene disruption if desired. However, the preferred method of heterozygote construction in diploid fungi employs a genetically modified dominant selectable marker. C. albicans is sensitive to the nucleoside-like antibiotic streptothricin at a concentration of 200 micrograms per milliliter. The presence of the Escherichia coli SAT1 gene within C. albicans allows acetylation of the drug rendering it nontoxic and permitting the strain to grow in the presence of streptothricin at a concentration of 200 micrograms per milliliter. Expression of the SAT1 gene in C. albicans is made possible by engineering the gene so that its DNA sequence is altered to conform to the genetic code of this organism and by providing a CaACT1 promoter (Morschhauser et al. (1998) Mol. Gen. Genet. 257:412-420) and a CaPCK1 terminator sequence (Leuker et al. (1997) Gene 192: 235-40). This genetically modified marker is referred to as CaSAT1 which is the subject of a copending United States nonprovisional application, published under the publication no. US20010031724, which is incorporated herein by reference in its entirety. […]
# CaERG11 GRACE strain = test: GRACE strain drug resistance/sensitivity by increasing and decreasing target expression; assay type: cell-based, Candida albicans
# Excerpt: as §1
# CaALG7 GRACE strain = test: as above; assay type: cell-based, Candida albicans
# Excerpt: as §1
# [3] = inhibitory 3-AT concentration, FIG. 6A
# [4] = intermediate 3-AT concentration, FIG. 6B
compound,measurement,setting,value
"Nc1nc[nH]n1 [3-AT, 3-aminotriazole]",sensitivity of the bar-coded strain heterozygous for the respective drug target versus other heterozygote bar-coded strains,[1],significantly greater sensitivity
same,growth of CaHIS3 heterozygote strain,[2]; [3],completely inhibit growth
same,growth of wild type CaHIS3 strain,[2]; [3],completely inhibit growth
same,phenotype of CaHIS3 GRACE strain overexpressing CaHIS3 (constitutive tetracycline promoter expression),[2]; [3],resistance
same,effect on tetracycline promoter-based overproducing CaHIS3 strain,[2]; [4],unable to effect
same,effect on wild type CaHIS3 strain,[2]; [4],unable to effect
same,sensitivity of heterozygous CaHIS3 strain (haploinsufficient phenotype),[2]; [4],enhanced sensitivity
same,"sensitivity of CaHIS3 GRACE strain minimally expressing CaHIS3 (partial repression, threshold tetracycline)",[2]; intermediate 3-AT concentration,enhanced drug sensitivity relative the heterozygous CaHIS3 strain
same,"sensitivity of CaHIS3 GRACE strain minimally expressing CaHIS3 (partial repression, threshold tetracycline)","[2]; intermediate 3-AT concentration, listed as 3-aminotriazole",hypersensitivity
CCCCNC(=O)n1c(NC(=O)OC)nc2ccccc21 [benomyl],sensitivity of the bar-coded strain heterozygous for the respective drug target versus other heterozygote bar-coded strains,[1],significantly greater sensitivity
CN(CC[C@H](N)CC(=O)N[C@H]1C=C[C@H](n2ccc(N)nc2=O)O[C@@H]1C(=O)O)C(=N)N [blasticidin],sensitivity of C. albicans,C. albicans; concentration not given,sensitive
OC(Cn1cncn1)(Cn1cncn1)c1ccc(F)cc1F [fluconazole],GRACE strain-specific phenotypes on increasing and decreasing expression of the known drug target,CaERG11 GRACE strain,drug resistance and sensitivity phenotypes
same,sensitivity of the bar-coded strain heterozygous for the respective drug target versus other heterozygote bar-coded strains,[1],significantly greater sensitivity
streptothricin,sensitivity of C. albicans,C. albicans; concentration of 200 micrograms per milliliter,sensitive
tunicamycin,GRACE strain-specific phenotypes on increasing and decreasing expression of the known drug target,CaALG7 GRACE strain,drug resistance and sensitivity phenotypes
same,sensitivity of the bar-coded strain heterozygous for the respective drug target versus other heterozygote bar-coded strains,[1],significantly greater sensitivity
